Experimental data as given in US20240043444A1, “METHODS FOR TREATING SPINOCEREBELLAR ATAXIA TYPE 3” (PTC Therapeutics, Inc., priority 2021, published 2024).

Columns and labels:
[1] = test system: Endogenous Total ATXN3 (tATXN3) Protein; test: Endogenous Total ATXN3 (tATXN3) Protein Assay (MSD immunoassay of cell lysates); type: cell-based; conditions: cells incubated with compound 48 h; 7-point concentration curve; MSD plate readout
Method: Meso Scale Discovery (MSD) 96-well or 384-well plates were coated overnight at 4° C. with Ataxin 3 mouse monoclonal antibody (Invitrogen, MA3-082) at a concentration of […] in PBS (30 μL per well). Plates were then washed three times with 300 μL wash buffer (0.05% TWEEN®-20, polyethylene glycol sorbitan monolaurate, in PBS) and blocked (Meso Scale Diagnostics, R93BA-1; 5% BSA in PBS) for 2 h at room temperature with rotational shaking and then washed three times with wash buffer.
(§1) Test compounds were serially diluted 3.16-fold in 100% DMSO to generate a 7-point concentration curve. Aliquots of 0.5 μL of diluted compounds were transferred to a 96-well flat bottom plate by a liquid handler. An aliquot of 0.5 μL DMSO was also transferred to separate wells and used as controls. Duplicate samples were set up for each compound concentration and for the DMSO control.
Cells were thawed and incubated in cell culture media (DMEM, 10% FBS, and 1% antibiotic cocktail) for 72 h. Cells were trypsinized, counted, and re-suspended to a concentration of 100,000 cells/mL in cell culture media. A 100 μL aliquot of the cell suspensions were plated at 10,000 cells per well in the compound containing 96 well microtiter plate and incubated for in a cell culture incubator (37° C., 5% CO2, 100% relative humidity). After 48 h, the medium was removed and 50-100 μL of lysis buffer (Meso Scale Diagnostics, R60TX-2) containing 1× halt protease inhibitor cocktail of (Thermo Scientific, Halt™ Protease Inhibitor Cocktail, 78430) per well was added to cells to provide a “cell lysate”. The plate was placed on a shaker at 4° C. for 30 minutes, then stored at −80° C.
Cell lysate samples (25 μL) were transferred to the antibody-coated MSD plate and incubated overnight at 4° C. After removal of the lysates, the plate was washed three times with wash buffer, and 25 μL of Ataxin 3 recombinant rabbit monoclonal antibody (Invitrogen, #702788) secondary antibody (diluted to 0.25 μg/mL in 0.05% TWEEN®-20 in blocking buffer) was added to each well and incubated with shaking for 1-2 h at room temperature. Following incubation with the secondary antibody, the wells were rinsed with wash buffer and then 25 μL of Anti Rabbit Antibody Goat SULFO-TAG Labeled (Meso Scale Diagnostics, R32AB-1) detecting antibody (diluted to 0.25 μg/mL in 0.05% TWEEN®-20 in blocking buffer) was added to each well and incubated with shaking for 1 h at room temperature. After rinsing three times with wash buffer, 150 μL of Read Buffer T with surfactant (tris-based buffer containing tripropylamine, Meso Scale Diagnostics, R92TC-1) were added to each empty well, and the plate was imaged on a SI 6000 imager (MSD) according to manufacturers' instructions provided for 96- or 384-well plates.

[2] = test system: ATXN3 Pre-mRNA (exon 4 skipping); test: RT-qPCR Assay to Quantify Exon 4 Skipping in ATXN3 Pre-mRNA in Cells; type: cell-based; conditions: cells incubated with compound 24 h, normalised to GAPDH, 7-point concentration curve
Method: as §1
Cells were thawed and incubated in cell culture media (DMEM, 10% FBS, and 1% antibiotic cocktail) for 72 h. Cells were trypsinized, counted, and re-suspended to a concentration of 100,000 cells/mL in cell culture media. A 100 μL aliquot of the cell suspensions were plated at 10,000 cells per well in the compound containing 96 well microtiter plate and incubated for in a cell culture incubator (37° C., 5% CO2, 100% relative humidity).
After 24 h, media was aspirated from the cells and 50 μL of the RCL2 lysis buffer (10 mM Tris-HCL pH 7.4, 150 mM NaCl, 0.33% IGEPAL® CA-630) was added to each well and incubated at room temperature for 1 min. Chilled nuclease free water (50 μL per well) was added and the plates were immediately transferred on ice. After 1 min on ice, plates were frozen at −80° C. overnight.
Preparation of RT-qPCR Reaction Mixture:
An aliquot of 2 μL/well of the cell lysates was transferred using the liquid handler to the Armadillo 384-Well PCR plate containing 8 μL/well of the RT-qPCR reaction mixture that was prepared as detailed above. The plates were then sealed with MicroAmp™ Optical Adhesive Film followed by spinning down for 1 min and placed in the CFX384 thermocycler (BioRad).
The RT-qPCR was carried out at the following temperatures for the indicated time: • Step 1: 48° C. (30 min) • Step 2: 95° C. (10 min) • Step 3: 95° C. (15 sec) • Step 4: 60° C. (1 min); then, repeated Steps 3 and 4 for a total of 40 cycles.
The percent exon 4 skipping was calculated for each dose of compound treatment using Equations 1 and 2.
Data were fit to a dose response curve and the IC50 was interpolated using XLfit® statistical and curve fitting package.
An IC50 value between >2.0 μM and ≤3.0 μM is indicated by one star (*). […] IC50 value between >0.5 μM and ≤1.0 μM is indicated by four stars (****). An IC50 value ≤0.5 μM is indicated by five stars (*****).

SMILES | IC50 [1] [nM] | IC50 [2] [nM] | IC50 (average, total ATXN3 protein) [1] | IC50 (exon 4 skipping in ATXN3 pre-mRNA) [2]
Cc1c(C[C@H](C)N)sc2c(NCc3cnco3)nc(Cl)nc12 [Cpd 75, 6-[(2S)-2-aminopropyl]-2-chloro-7-methyl-N-[(1,3-oxazol-5-yl)methyl]thieno[3,2-d]pyrimidin-4-amine] | 1000 to 1500 | 500 to 1000 | – | –
Cc1c(C[C@H](C)N)sc2c(NCc3ccc(F)s3)nc(Cl)nc12 [Cpd 33, 6-[(2S)-2-aminopropyl]-2-chloro-N-[(5-fluorothiophen-2-yl)methyl]-7-methylthieno[3,2-d]pyrimidin-4-amine] | ≤ 500 | ≤ 500 | – | –
Cc1c(C[C@H](C)N)sc2c(NCc3ccnn3C)nc(Cl)nc12 [Cpd 81, 6-[(2S)-2-aminopropyl]-2-chloro-7-methyl-N-[(1-methyl-1H-pyrazol-5-yl)methyl]thieno[3,2-d]pyrimidin-4-amine] | – | – | inactive | inactive
Cc1csc(CNc2nc(Cl)nc3c(C)c(C[C@H](C)N)sc23)n1 [Cpd 27, 6-[(2S)-2-aminopropyl]-2-chloro-7-methyl-N-[(4-methyl-1,3-thiazol-2-yl)methyl]thieno[3,2-d]pyrimidin-4-amine] | – | 2000 to 3000 | inactive | –
Cc1c(C[C@H](C)N)sc2c(NCc3ncccn3)nc(Cl)nc12 [Cpd 55, 6-[(2S)-2-aminopropyl]-2-chloro-7-methyl-N-[(pyrimidin-2-yl)methyl]thieno[3,2-d]pyrimidin-4-amine] | > 2000 | 2000 to 3000 | – | –
C[C@H](N)Cc1sc2c(NCc3ccncc3F)nc(Cl)nc2c1Br [Cpd 68, 6-[(2S)-2-aminopropyl]-7-bromo-2-chloro-N-[(3-fluoropyridin-4-yl)methyl]thieno[3,2-d]pyrimidin-4-amine] | ≤ 500 | ≤ 500 | – | –
Cc1c(C[C@H](C)N)sc2c(NCc3nc(F)cs3)nc(Cl)nc12 [Cpd 92, 6-[(2S)-2-aminopropyl]-2-chloro-N-[(4-fluoro-1,3-thiazol-2-yl)methyl]-7-methylthieno[3,2-d]pyrimidin-4-amine] | ≤ 500 | ≤ 500 | – | –
C[C@H](N)Cc1sc2c(NCc3cccs3)nc(Cl)nc2c1Br [Cpd 82, 6-[(2S)-2-aminopropyl]-7-bromo-2-chloro-N-[(thiophen-2-yl)methyl]thieno[3,2-d]pyrimidin-4-amine] | ≤ 500 | ≤ 500 | – | –
Cc1c(C[C@H](C)N)sc2c(NCc3cccnc3F)nc(Cl)nc12 [Cpd 60, 6-[(2S)-2-aminopropyl]-2-chloro-N-[(2-fluoropyridin-3-yl)methyl]-7-methylthieno[3,2-d]pyrimidin-4-amine] | > 2000 | 2000 to 3000 | – | –
Cc1c(C[C@H](C)N)sc2c(NCc3ccno3)nc(Cl)nc12 [Cpd 39, 6-[(2S)-2-aminopropyl]-2-chloro-7-methyl-N-[(1,2-oxazol-5-yl)methyl]thieno[3,2-d]pyrimidin-4-amine] | ≤ 500 | ≤ 500 | – | –
Cc1ccc(CNc2nc(Cl)nc3c(C)c(C[C@H](C)N)sc23)o1 [Cpd 24, 6-[(2S)-2-aminopropyl]-2-chloro-7-methyl-N-[(5-methylfuran-2-yl)methyl]thieno[3,2-d]pyrimidin-4-amine] | > 2000 | 1500 to 2000 | – | –
Cc1c(C[C@@H](C)CN)sc2c(NCc3ccco3)nc(Cl)nc12 [Cpd 72, 6-[(2R)-3-amino-2-methylpropyl]-2-chloro-N-[(furan-2-yl)methyl]-7-methylthieno[3,2-d]pyrimidin-4-amine] | > 2000 | 1500 to 2000 | – | –
CCc1c(C[C@H](C)N)sc2c(NCc3ccco3)nc(Cl)nc12 [Cpd 77, 6-[(2S)-2-aminopropyl]-2-chloro-7-ethyl-N-[(furan-2-yl)methyl]thieno[3,2-d]pyrimidin-4-amine] | ≤ 500 | ≤ 500 | – | –
Cc1c(C[C@H](C)N)sc2c(NCc3ncccc3F)nc(Cl)nc12 [Cpd 59, 6-[(2S)-2-aminopropyl]-2-chloro-N-[(3-fluoropyridin-2-yl)methyl]-7-methylthieno[3,2-d]pyrimidin-4-amine] | 1500 to 2000 | 1000 to 1500 | – | –
Cc1c(C[C@H](C)CN)sc2c(NCc3ccco3)nc(Cl)nc12 [Cpd 70, 6-[(2S)-3-amino-2-methylpropyl]-2-chloro-N-[(furan-2-yl)methyl]-7-methylthieno[3,2-d]pyrimidin-4-amine] | 1000 to 1500 | 500 to 1000 | – | –
Cc1cnc(CNc2nc(Cl)nc3c(C)c(C[C@H](C)N)sc23)s1 [Cpd 31, 6-[(2S)-2-aminopropyl]-2-chloro-7-methyl-N-[(5-methyl-1,3-thiazol-2-yl)methyl]thieno[3,2-d]pyrimidin-4-amine] | > 2000 | 2000 to 3000 | – | –
Cc1c(C[C@H](C)N)sc2c(NCc3sccc3F)nc(Cl)nc12 [Cpd 90, 6-[(2S)-2-aminopropyl]-2-chloro-N-[(3-fluorothiophen-2-yl)methyl]-7-methylthieno[3,2-d]pyrimidin-4-amine] | ≤ 500 | ≤ 500 | – | –
Cc1nc(NCc2ccco2)c2sc(C[C@H](C)N)c(C)c2n1 [Cpd 15, 6-[(2S)-2-aminopropyl]-N-[(furan-2-yl)methyl]-2,7-dimethylthieno[3,2-d]pyrimidin-4-amine] | 500 to 1000 | ≤ 500 | – | –
Cc1c(C[C@H](C)N)sc2c(NCc3nccs3)nc(Cl)nc12 [Cpd 29, 6-[(2S)-2-aminopropyl]-2-chloro-7-methyl-N-[(1,3-thiazol-2-yl)methyl]thieno[3,2-d]pyrimidin-4-amine] | ≤ 500 | ≤ 500 | – | –
CC(C)[C@H](N)Cc1cc2nc(Cl)nc(NCc3ccco3)c2s1 [Cpd 5, 6-[(2R)-2-amino-3-methylbutyl]-2-chloro-N-[(furan-2-yl)methyl]thieno[3,2-d]pyrimidin-4-amine] | ≤ 500 | 500 to 1000 | – | –
Cc1c(C[C@H](C)N)sc2c(NCc3cncs3)nc(Cl)nc12 [Cpd 74, 6-[(2S)-2-aminopropyl]-2-chloro-7-methyl-N-[(1,3-thiazol-5-yl)methyl]thieno[3,2-d]pyrimidin-4-amine] | 1500 to 2000 | 1000 to 1500 | – | –
C[C@H](N)Cc1sc2c(NCc3cccs3)nc(Cl)nc2c1-c1ccc(Cl)cc1 [Cpd 88, 6-[(2S)-2-aminopropyl]-2-chloro-7-(4-chlorophenyl)-N-[(thiophen-2-yl)methyl]thieno[3,2-d]pyrimidin-4-amine] | – | – | inactive | inactive
C[C@H](N)Cc1sc2c(NCc3cccs3)nc(Cl)nc2c1C1CC1 [Cpd 86, 6-[(2S)-2-aminopropyl]-2-chloro-7-cyclopropyl-N-[(thiophen-2-yl)methyl]thieno[3,2-d]pyrimidin-4-amine] | ≤ 500 | ≤ 500 | – | –
Cc1c(C[C@@H]2CCOC(=O)N2)sc2c(NCc3ccco3)nc(Cl)nc12 [Cpd 52, (4S)-4-[(2-chloro-4-{[(furan-2-yl)methyl]amino}-7-methylthieno[3,2-d]pyrimidin-6-yl)methyl]-1,3-oxazinan-2-one] | > 2000 | – | – | inactive
